Experimental findings from patent US12458678B2, “Composition for preventing or treating prostatic hyperplasia comprising mixed extracts of Curcumae radix and Syzygii flos” (UNIVERSITY-INDUSTRY COOPERATION GROUP OF KYUNG HEE …, priority 2019, dated 2025) are described below.

Structures are written as SMILES.

For data set [1], the system named is dihydrotestosterone (DHT). Kind of data set: Dihydrotestosterone (DHT) assay by ELISA in BPH rats. Type of data set: in vivo, Sprague-Dawley (SD) rats. The following applies: Example 11.1, FIG. 11; comparison with finasteride. In general terms: ELISA stands for enzyme-linked immunosorbent assay.
In data set [2] the test system is sperm count in the epididymis. Kind of data set: Analysis of sperm count in epididymis. Type of data set: in vivo, SD rats. The following applies: cauda epididymis of BPH rats; FIG. 17. As to the method: After excision of cauda epididymis from […] SD rats, it was cut into small pieces twice. Then, they were immersed in 4 ml of PBS for 1 hour to cause the sperm to spread into the PBS solution. After mixing PBS containing sperm with the same amount of methanol, they were observed using a hematocytometer and an Olympus IX71 Research Inverted Phase microscope (Olympus Co., Tokyo, Japan).
In order to check the sperm count, after excision of the cauda epididymis of the SD rat group used in the above-mentioned Examples, it was cut into small pieces twice. Then, they were placed in 4 ml of PBS for 1 hour to allow the sperm to spread into the PBS solution. After mixing PBS containing sperm with the same amount of methanol, they were observed using a hematocytometer and an Olympus IX71 Research Inverted Phase microscope.

Data set [3] relates to prostate epithelial cells. Kind of data set: H&E staining of prostate tissue, prostate epithelial cell thickness. To be noted: TP-induced BPH rats, FIG. 3B. Type of data set: in vivo, Sprague-Dawley (SD) rats. As to the method: To induce benign prostatic hyperplasia, rats were divided into four groups, and six animals were randomly assigned to each group. Three groups among them were injected with TP (5 mg/kg/day) into the groin for 4 weeks, and one group, a normal control group, was injected with the same amount of ethanol. After induction of benign prostatic hyperplasia for 4 weeks, the experiment was performed by various treatment as follows: (i) a normal control group injected with ethanol for an additional four weeks (NC group); (ii) a disease control group injected with TP for an additional four weeks (benign prostatic hyperplasia, BPH group); […] Prostate samples fixed in paraffin were cut to a thickness of 4 μm. […] Tissue sections were treated in 150 μl of 0.1% trypsin working solution (composition: trypsin 0.4 ml, calcium 0.01 g, chloride 0.01 g in D.W. 7 ml) for 15 minutes, and then blocked using fetal bovine serum (FBS). For H&E staining, the cut tissue was immersed in hematoxylin solution for 5 minutes, distilled water for 5 minutes, and eosin solution for 30 seconds, and then dried and fixed. The slides were observed using an Olympus IX71 Research Inverted Phase microscope (Olympus Co., Tokyo, Japan), and the density was measured using ImageJ 1.47v software (National Institute of Health, MD, USA).

The test system of data set [4] is proliferating cell nuclear antigen (PCNA). Kind of data set: PCNA expression in prostate tissue, Western blot. The format is in vivo, Sprague-Dawley (SD) rats. To be noted: Example 11.4, FIG. 14; comparison with finasteride. In general terms: In western blotting, separated proteins are transferred to a membrane and probed.
The test system of data set [5] is cyclin B1. Kind of data set: Cyclin B1 expression in prostate tissue, Western blot. The format is in vivo, Sprague-Dawley (SD) rats. To be noted: Example 11.5, FIG. 15; comparison with finasteride.
Data set [6] relates to prostate specific antigen (PSA). Kind of data set: Prostate specific antigen expression in prostate tissue, Western blot. The format is in vivo, Sprague-Dawley (SD) rats. To be noted: Example 11.2, FIG. 12; comparison with finasteride.
In data set [7] the test system is benign prostatic hyperplasia animal model. Kind of data set: Prostate tissue weight and prostate index in TP-induced benign prostatic hyperplasia rats. The format is in vivo, Sprague-Dawley (SD) rats. To be noted: FIG. 2 upper. The method, then: For the benign prostatic hyperplasia animal model, 12-week-old male Sprague-Dawley (SD) rats (200±20 g) were purchased and tested from Daehan Biolink (Eumseong, Korea). After an acclimatization period for 1 week before the start of the experiment, feed and water were freely ingested for 6 weeks during the experiment. In an environment in which the light was controlled at intervals of 12 hours, the indoor temperature was 23±2° C., and the humidity was maintained at 70%. To induce benign prostatic hyperplasia, rats were divided into four groups, and six animals were randomly assigned to each group. Three groups among them were injected with TP (5 mg/kg/day) into the groin for 4 weeks, and one group, a normal control group, was injected with the same amount of ethanol. After induction of benign prostatic hyperplasia for 4 weeks, the experiment was performed by various treatment as follows: (i) a normal control group injected with ethanol for an additional four weeks (NC group); (ii) a disease control group injected with TP for an additional four weeks (benign prostatic hyperplasia, BPH group); […] In addition, in order to correct the difference in tissue weight according to body weight, the prostate index was calculated by dividing the weight of the prostate in mg with respect to 100 g of body weight.

As for `CC(C)(C)NC(=O)[C@H]1CC[C@H]2[C@@H]3CC[C@H]4NC(=O)C=C[C@]4(C)[C@H]3CC[C@]12C` [finasteride], the “DHT expression inhibited based on the BPH group” value in data set [1] is reported as 77%. The “sperm count compared to the NC group” value in data set [2] was determined as 56%. Moreover, the “thickness of prostate epithelial cells” value in data set [3] (BPH group 12.06 μm, NC group 9.68 μm) turned out to be 9.38 μm. Further, the “prostate epithelial cell thickness reduced compared to the BPH group” value in data set [3] was 22%. In data set [4], the “PCNA expression inhibited based on the BPH group” value turned out to be 45%. In data set [5], the “cyclin B1 expression inhibited based on the BPH group” value came out at 41%. Moreover, the “PSA expression inhibited based on the BPH group” value in data set [6] is listed as 55%. The average prostate weight in data set [7] (TP-induced BPH rats, UM-002 50 mg/kg/day or finasteride 1 mg/kg/day for 4 weeks, BPH group 1.73 g, NC group 0.73 g) was determined as 0.93 g. Besides, in data set [7] (vs BPH group 1.73 g), the “prostate weight lower than that of the BPH group” value was found to be 54%.
